Measurements taken from patent US20110223222A1, “Antiperspirant Compositions and Methods for Reducing Perspiration in Humans” (priority 2008, published 2011).

What was measured:
[1] = tested on: axillae of healthy female volunteers; experiment: Antiperspirant efficacy, FDA hotroom protocol, gravimetric sweat collection; assay type: in vivo, human; details: after four days of once-daily topical treatment, D4 vs D1 baseline
Method: The antiperspirant efficacy and safety of investigated compounds were tested pursuant to protocol prescribed by the Food and Drug Administration, […] (Guidelines for Effectiveness Testing of OTC Antiperspirant Drug Products, 2004). The clinical study further conformed to Normative Resolution 196/96, CN/MS. The clinical study was divided into three tests and conducted with among at least thirty healthy female volunteers per test. They were between the ages of 18 and 50. The study was single-center, randomized, controlled, double blind assessment of the safety, tolerability and antiperspirant efficacy of TRPM8 agonists when applied to the axillae of healthy female volunteers. Before proceeding with the testing, all the volunteers were submitted to a “rest period” of 17 days, according to the FDA protocol. During this period, a placebo control formulation with no antiperspirancy effect was applied twice a day to both axillae. Treatments were applied once daily for four consecutive days (numbered D1 to D4). On D1, the baseline perspiration rate was determined before the antiperspirant formulations were applied. All the volunteers remained under hotroom conditions for a 40-minute warm-up period, divided into 2 periods of 20 minutes each. The term “hotroom condition” is the controlled environment (temperatures at 38° C.±1° C., and relative humidity of 35%±5%) established by the FDA standard protocol to thermally induce volunteer's perspiration. Cotton absorbent pads (Sussex®) were preweighed (P1) and placed in both axillae of each volunteer. At the end of the warm-up period, the perspiration collected on the absorbent pads was again weighed (P2) and the perspiration rates were obtained through gravimetric measurements (according to the formula P2-P1). According to FDA protocol, volunteers must produce at least 100 milligrams of sweat from the placebo control axilla in a 20-minute collection in the controlled environment, and at least one volunteer must produce more than 600 milligrams of sweat. Commercial menthol (YSC), Mentha essential oil (YSC) and Eucalyptus essential oil (Inter-Link) were presented as components of the antiperspirant formulations as described in the Example 1. Both commercial Mentha and Eucalyptus essential oils, which present menthol and eucalyptol, respectively, as the major components, were submitted to a GC-MS analysis in order to determine the appropriate amount of essential oils to be used to manufacture the antiperspirant compositions. In each treatment group as listed below, one of the antiperspirant formulations were applied to one axilla of the volunteers. […] Safety and tolerance were measured by assessment of visual effects and dermal irritancy, and subjective assessment of tolerance. […]

[2] = tested on: axilla odor of volunteers; experiment: Evaluation of deodorant effect (sniff test); assay type: in vivo, human; details: at D4 vs D1, odor score 0-10 by two trained judges
Method: The volunteers were submitted to a “rest period” as described previously in Example 2. The odor was evaluated for the volunteers at D1 and at D4. At D1 the evaluation was made before the application of the test formulations, after the 20-minute warm-up period, and only the volunteers with starting values not less than 2 were included in the test. The odor evaluation scoring system was based on a range of axilla odor from no malodor (0), to moderate malodor (5), to extremely strong malodor (10). Two trained judges, familiar with the procedures and rating system, subjectively made the odor measurements of both axillae of each volunteer. The data correspond to the individual subject scores by the two trained judges and to the individual average.

Structure (SMILES): CC1CCC(C(C)C)C(O)C1 (centres unmarked) [menthol]
- reduction in sweat production ([1]; Group 1, one hour after application): 61.4%±23.1
- reduction in sweat production ([1]; Group 2, two hours after application): 63.7%±21.8
- reduction in sweat production ([1]; Group 3, four hours after application): 63.7%±21.8
- reduction in sweat production ([1]; Group 3, four hours after application, listed as menthol (YSC)): 75%±12.1
- improvement in axilla odor [2]: 6.4%±25.3
